3 compounds from PMC4865845, “A human genome-wide loss-of-function screen identifies effective chikungunya antiviral drugs” (Nature Communications, 2016) can be followed below.

Bounds are passed on as bounds.

The subject of one data set is CHIKV. The data set is described as follows: microbe, parasite or virus in culture. The class given is cell-based, chikungunya virus. To be noted: Chikungunya virus, HEK293; HEK-293 cells pretreated with dilutions of each drug, CHIKV-GFP, 18 h p.i.
The test system of a further data set is HEK-293 cells. Kind of data set: Cell viability, Cell Proliferation Reagent WST-1. The class given is cell-based, human. Particulars: Homo sapiens, HEK293, 18 h, read-out: WST-1 IC50. How it is done: To exclude the possible cytotoxic effects, all compounds were additionally tested using the ‘Cell Proliferation Reagent WST-1' (Roche Diagnostics). HEK-293 cells were treated with the same concentrations of the various substances and 18 h later WST-1 was added. Readout was conducted using the EnVision Multilabel Reader (PerkinElmer).
In general terms: Tetrazolium assays rely on reduction of a dye to a coloured formazan, in cell work by metabolically active cells.

For a further data set, the system named is CHIKV replicon. The data set is described as follows: CHIKV replicon dual-luciferase assay (genomic and subgenomic vRNA expression). To be noted: HeLa cells, inhibitor from 1 h p.i., read 8 h p.i. In kind it is cell-based, chikungunya virus. (In general: A replicon is a self-replicating genome or part of one, used to study replication in cells.)
For data set [1], the system named is CHIKV C21. Kind of data set: Quantitative RT-PCR of cell- and supernatant-associated vRNA. The class given is cell-based, chikungunya virus. Particulars: HeLa; for vRNA synthesis (cell-associated vRNA) / viral release in the supernatants (supernatant-associated vRNA): CHIKV C21 MOI 50 for 1 h, then drug 7 h: cerulenin 50 μM, TOFA 25 μM, pimozide 10 μM, W7 20 μM, tivozanib 5 μM; for vRNA replication, delayed treatment / viral release, delayed treatment: CHIKV-infected, drugs from 6 to 8 h p.i.

The subject of data set [2] is CHIKV C21. The class given is in vivo, C57BL/6 mice. Particulars: adult mice pretreated at least 3 days (pimozide 20 mg kg−1 per os; TOFA 25 mg kg−1 i.p.), 18 h p.i.
The test system of data set [3] is HeLa cells. The data set is described as follows: Cell viability, CellTiter-Glo kit. Particulars: end of the 1 h infection + 7 h treatment experiment. (In general: In ATP-based viability assays light output follows the ATP content of the culture.)
The test system of data set [4] is HeLa cells. The data set is described as follows: Real-time cell toxicity assay (xCELLigence).
For data set [5], the system named is CHIKV C21. Kind of data set: Intradermal CHIKV infection model of neonatal mice. Particulars: neonatal mice.
Data set [6] deals with herpes simplex type 1 strain KOS (HSV-1). In kind it is cell-based, herpes simplex virus 1. Particulars: HEK-293 cells pretreated 2 h, Fig. 4.
The next data set addresses CLK1 (Homo sapiens, UniProt P49759). The data set is described as follows: CLK1 inhibition by capillary electrophoresis in a microfluidic chip system (LabChip3000). The class given is biochemical.

Chain of CLK1 (P49759 whole entry): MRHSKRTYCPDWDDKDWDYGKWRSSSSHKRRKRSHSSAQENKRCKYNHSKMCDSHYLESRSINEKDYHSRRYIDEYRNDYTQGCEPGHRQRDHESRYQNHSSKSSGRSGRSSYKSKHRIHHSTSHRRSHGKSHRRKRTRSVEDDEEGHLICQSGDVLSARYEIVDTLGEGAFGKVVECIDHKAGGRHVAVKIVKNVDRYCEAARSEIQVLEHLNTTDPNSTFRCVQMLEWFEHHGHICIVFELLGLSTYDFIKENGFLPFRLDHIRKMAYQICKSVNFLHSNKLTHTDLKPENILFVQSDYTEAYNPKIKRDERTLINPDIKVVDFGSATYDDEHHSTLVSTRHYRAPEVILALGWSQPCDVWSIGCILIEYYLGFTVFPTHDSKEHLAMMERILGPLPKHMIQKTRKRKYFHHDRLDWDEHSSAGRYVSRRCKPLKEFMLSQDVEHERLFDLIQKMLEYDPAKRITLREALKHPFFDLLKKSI

For the compound `CCCCCCCCCCCCCCOc1ccc(C(=O)O)o1` [TOFA, 5-tetradecyloxy-2-furoic acid], the IC50 in the data set on CHIKV was found to be 150 nM. Further, the IC50 in the data set on HEK-293 cells is greater than 60000 nM. Moreover, the “genomic and subgenomic vRNA synthesis” value in the data set with CHIKV replicon is “significant and dose-dependent reduction”. In the data set with CHIKV C21 [1], the “vRNA synthesis (cell-associated vRNA)” value is reported as “significantly reduced vRNA synthesis”; the “viral release in the supernatants (supernatant-associated vRNA)” value is “strongly inhibited viral release”; the “vRNA replication, delayed treatment” value was “only a minor impact on vRNA replication”; the “viral release, delayed treatment” value is “major defect in viral release”. For the same compound, the “CHIKV titres in the footpad (replication)” value in the data set with CHIKV C21 [2] was “significantly reduced replication”. The cell toxicity result in the data set with HeLa cells [3] is listed as “no detectable cell toxicity”. For the same compound, the “effect on cell viability” value in the data set on HeLa cells [4] is listed as “no deleterious effect on cell viability”. Also, the “impact on mouse growth” value with CHIKV C21 [5] was “detectable impact on mouse growth”.
For the compound `O=c1[nH]c2ccccc2n1C1CCN(CCCC(c2ccc(F)cc2)c2ccc(F)cc2)CC1` [Pimozide], the IC50 in the data set on CHIKV came out at 280 nM. Also, the 50% inhibitory concentration (IC50) in the data set on HEK-293 cells stood at 19200 nM. Further, in the data set on CHIKV C21 [1], the “vRNA synthesis (cell-associated vRNA)” value was “significantly reduced vRNA synthesis”; the “viral release in the supernatants (supernatant-associated vRNA)” value was “strongly inhibited viral release”; the “vRNA replication, delayed treatment” value is “only a minor impact on vRNA replication”; the “viral release, delayed treatment” value is listed as “major defect in viral release”. Besides, the “CHIKV titres in the footpad (replication)” value in the data set on CHIKV C21 [2] was “significantly reduced replication”. Moreover, the “antiviral effect on HSV-1” value in [6] is reported as “antiviral effect”. The cell toxicity result with HeLa cells [3] is “no detectable cell toxicity”. For the same compound, in the data set with CHIKV C21 [5], the “impact on mouse growth” value was “detectable impact on mouse growth”.
Regarding `C#CCn1c2c(Br)nccc2c2ccc(Cl)c(Cl)c21` [AnnH80, 1-bromo-7,8-dichloro-9-(prop-2-yn-1-yl)-9H-pyrido[3,4-b]indole], the melting point is 190 to 193 °C. This compound also registered an IC50 against CLK1 of 862 nM.

Broadly, the IC50 is the concentration that inhibits the measured activity by half. For orientation: melting point means the temperature, or range, at which the solid turns liquid.
